Consider one substance from patent US11466054B2, “Inhibitors of metastasis” (BIOMARCK PHARMACEUTICALS LTD., priority 2013, dated 2022).

Experiment [1] concerns A549. The experiment in a line: Transwell migration assay, A549 cells. It is filed as cell-based, human. To be noted: 12 hr. Here is the method:
The human adenocarcinoma-derived alveolar epithelial cell line A549 (an invasive cell line) was obtained from the American Type Culture Collection (ATCC) and was cultured in RPMI-1640 supplemented with 10% fetal bovine serum and 100 U/ml penicillin/streptomycin, in 75 cm^2 tissue culture flasks. The cells reached confluence by the third day of culture at 37° C. in an atmosphere of 95% air and 5% CO2 and were maintained by serial passage.
The test peptides (MANS, RNS, BIO-11006, BIO-11000, BIO-11002, BIO-91200, and BIO-10901) were dissolved in PBS at a pH of 7.0; slow vortex mixing for about two hours aided solubility.
Transwell plates (24-well, […]; Costar, Cambridge, Mass., USA) were used to conduct the migration assay. The lower chambers of the transwell plates were filled with 600 μl of basal medium containing 10% FBS. The cells (1×10^5) were suspended in 100 μl of basal medium containing 1% BSA and added to the upper chamber, and the plates incubated at 37° C. with 5% CO2 for 12 hr in PBS (control), or the indicated test peptides at 10, 25 or 50 μM. The cells on the upper surface of the filters were removed using cotton swabs. The cells that migrated to the lower surface of the filters were washed, fixed, and stained with hematoxylin and counted under the microscope. The percent change in migration is determined by counting the number of cells that migrated to the lower surface of the filters. At least four separate microscopic fields are counted per membrane, with a total of three replicate experiments at each concentration. The statistics software “Prizm” was used for data analysis.

Experiment [2] relates to Human adenocarcinoma cells (PC-9). The experiment in a line: Orthotopic lung cancer implantation model in SCID mice, aerosol from day 4 or day 15 (Example 5). The format is in vivo. The note with it: for total number of tumor nodules found in all tissues: FIG. 14. On the procedure: In this study, inhibition of lung cancer metastasis by BIO-11006 was investigated in an orthotopic lung cancer implantation model in SCID mice. Human adenocarcinoma cells (PC-9) (1-2×10^5) were suspended in 40 μL of PBS containing 0.5 mg/mL of Matrigel™ (BD Bioscience) and injected into the left lung of SCID mice (n=3) using a 29 gauge needle. BIO-11006 was administered starting either 4 days or 15 days post cancer cell inoculation by aerosol using 100 μM solution in PBS by Nebulizer Delivery System (Aeroneb Lab) over 30 min once daily for 25 days post cancer cell inoculation. At end of the experiment, the mice were sacrificed and lungs, heart, and diaphragm tissues collected and number of tumor nodules in each tissue measured. The results of this experiment are presented graphically in FIGS. 13 and 14. […] When the treatment was initiated at 15 days post inoculation of cancer cells, the inhibition of tumor metastasis was about 50% in the lungs, heart, and diaphragm. FIG. 14 depicts the total number of tumor nodules found in all tissues when peptide treatment was started at 15 days post cancer cell inoculation or 4 days post cancer cell inoculation.

Experiment [3] concerns CL1-5 cells. The experiment can be described thus: Transwell migration assay, CL1-5 cells pretreated with peptide.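 As to migration index: index equals control cell count divided by treated cell count.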 The format is cell-based, human. To be noted: 12 hours; for cell number: control approximately 105; for migration index: control=1.0. Here is the method: CL1-5 cells, an aggressively metastatic cell line derived from a human adenocarcinoma, were cultured in RPMI 1640 media with 10% FBS, 37° C. at 95% […]/5% CO2 until ready for use. Transwell plates (24-well, 8-um pore size; Costar, Cambridge, Mass., USA) were used to conduct the migration assay. The lower chambers of the Transwell plates were filled with 600 μl of basal media containing 10% FBS. The cells (1×10^5) were pretreated with 50 or 100 μM of the indicated test peptide for 30 min, and then suspended in 100 μl of basal media containing 1% BSA and added to the upper chamber, and the cells then were incubated at 37° C. for 12 hr. The cells on the upper surface of the filters were removed using cotton swabs, and the cells that migrated to the lower surface of the filters were washed, fixed, and stained with hematoxylin and counted under the microscope. The percent change in migration was determined by counting the number of cells that migrated to the lower surface of the filters. At least 3 separate microscopic fields were counted per membrane (n=4).
Primary CL1-5 cells originated from human adenocarcinoma lung cancer Transwell plates with 24-wells, 8-μ pore size (Costar, Cambridge, Mass., USA) were used to conduct the migration assay. The lower chambers of the transwell plates were filled with 600 μL of basal media containing 10% FBS. The cells (1-2×10^5) were suspended in 100 μL of basal media containing 1% BSA. The test peptide at desired concentration was added to the upper chamber directly or after preincubation with cancer cells. The plates were then incubated at 37° C. for 12 hours. The cells on the upper surface of the filters were removed using cotton swabs. The cells that migrated to the lower surface of the filters were washed, fixed, and stained with hematoxylin and counted under the microscope. At least five separate microscopic fields are counted per membrane (n=3). The percent change in migration was determined by counting the number of cells that migrated to the lower surface of the filters.
The count means the actual number of cells which migrated to the lower chamber and counted by a light microscope at 40× magnification, presented as the mean number of cells in 10 randomly chosen fields for each treatment.
The “index” was calculated by dividing the number of cells that migrated in the presence of peptides by the number of cells that migrated randomly (control group). […]. This calculation can reflect the extent that the migration of cells was blocked by 30 minute pretreatment with MANS-related peptides.

Experiment [4] has as its system Human adenocarcinoma cells (PC-9). The experiment in a line: Orthotopic lung cancer implantation model in SCID mice, i.p. versus inhalation (Example 4). The format is in vivo. On the procedure:
In this study, inhibition of lung cancer metastasis by peptide BIO-11006 in an orthotopic lung cancer implantation model in SCID mice assessed. Human adenocarcinoma cells (PC-9) (1-2×10^5) were suspended in 40 μL of PBS, pH 7.4 containing 0.5 mg/mL of Matrigel™ (BD Bioscience) and injected into the left lung of SCID mice (n=3) using a syringe with 29 gauge needle. BIO-11006 (100 μM, in PBS) was administered either (a) by i.p. injection (50 μL) once daily for 22 days starting at 3 days post cancer cell inoculation or (b) by aerosol inhalation using a Nebulizer Delivery System (Aeroneb Lab) over 30 min once daily for 22 days starting at 3 days post cancer cell inoculation. […] Both i.p. and aerosol administration of BIO-11006 reduced cancer cell metastasis by more than 50% in the right lung and heart, and 100% in the diaphragm. Thus, both routes of administration had significant inhibitory effects on cancer cell metastasis.

[5] abbreviates: aerosol 100 μM once daily, started 4 days post inoculation, FIG. 13.
Where [6] appears, read: CL1-5, 50 μmolar pretreatment, FIG. 9.
Where [7] appears, read: CL1-5, 100 μmolar pretreatment, FIG. 10.
[8] abbreviates: aerosol inhalation 100 μM over 30 min once daily for 22 days from 3 days post inoculation.
Where [9] appears, read: i.p. injection 50 μL of 100 μM once daily for 22 days from 3 days post inoculation.

Where no end group is shown, it is not given here.

Take “N-acetyl-GAQFSKTAAK (Ac-GAQFSKTAAK; listed as Homo sapiens) [BIO-11006]”: the “cell numbers in comparison to control, RNS peptide and MANS peptide” value in experiment [1] (A549, 25 μm, FIG. 11) is listed as “significantly reduced cell numbers”. Moreover, the “migration index numbers relative to control and to RNS peptide” value in experiment [1] (A549, 50 μm) is “increased migration index numbers”. Further, the “migrated cell numbers relative to control and to RNS peptide” value in experiment [1] (A549, 50 μm, FIG. 11) was “decreased migrated cell numbers”. Moreover, the “inhibition of tumor metastasis in the lungs, heart, and diaphragm” value in experiment [2] (aerosol 100 μM once daily, initiated 15 days post inoculation, FIG. 13) was “about 50%”. Also, in experiment [2] (setting [5]), the “inhibition of tumor metastasis in the left lung, heart, and diaphragm” value is listed as 60-90%; the “inhibition of tumor metastasis in the right lung” value is 100%. For the same substance, the “total number of tumor nodules found in all tissues” value in experiment [2] (treatment starting at 4 days post cancer cell inoculation) is “even further reduced tumor nodules”. Moreover, the “total number of tumor nodules found in all tissues” value in experiment [2] (treatment starting at 15 days post cancer cell inoculation) was “reduced tumor nodules”. Moreover, in experiment [3] (setting [6]), the cell number entry is “approximately 50” and the migration index result is given as “approximately 2”. In addition, in experiment [3] (setting [7]), the cell number result was “approximately 50” and the migration index result was “approximately 2.1”. Also, in experiment [4] (setting [8]), the “reduction of cancer cell metastasis in the diaphragm” value stood at 100%; the “reduction of cancer cell metastasis in the right lung and heart” value is “more than 50%”. For the same substance, in experiment [4] (setting [9]), the “reduction of cancer cell metastasis in the diaphragm” value came out at 100%; the “reduction of cancer cell metastasis in the right lung and heart” value is given as “more than 50%”.
